# Reference: patent US20240158446A1, “CYCLIC COMPOUND HAVING SELECTIVE INHIBITORY ACTION ON KRAS OVER HRAS AND NRAS” (CHUGAI SEIYAKU KABUSHIKI KAISHA, priority 2021, published 2024)
# Where two headings read alike, the source gives them in different places. Where a SMILES comes first, the peptide text is derived from it. Bridges are numbered along the chain shown (N, C = ends). [ ]: non-standard residue; d: D form. The star is where a group is joined. hPhe(3,5-F2-4-CF3) = N[C@@H](CCc1cc(F)c(C(F)(F)F)c(F)c1)C(=O)O; NPrPhe(4-CF3) = CCCN[C@@H](Cc1ccc(C(F)(F)F)cc1)C(=O)O; NMeGly(cPent) = CN[C@H](C(=O)O)C1CCCC1; NMeD = CN[C@@H](CC(=O)O)C(=O)O; NMeL = CN[C@@H](CC(C)C)C(=O)O; αMeL = CC(C)C[C@](C)(N)C(=O)O; Morpholide = C1CN(*)CCO1; Sar = CNCC(=O)O
# Tests used:
# [1] = biological target: GDP-bound NRAS wild-type protein (Homo sapiens, UniProt P01111); assay: Binding to NRAS by surface plasmon resonance (SPR), Single Cycle Kinetics; conditions: for NRAS/KRAS (ratio of KD value with respect to GDP-bound NRAS wild-type protein to KD value with respect to KRAS): SPR KD ratio NRAS/KRAS, class symbols
# Chain of GDP-bound NRAS wild-type protein (P01111 whole entry): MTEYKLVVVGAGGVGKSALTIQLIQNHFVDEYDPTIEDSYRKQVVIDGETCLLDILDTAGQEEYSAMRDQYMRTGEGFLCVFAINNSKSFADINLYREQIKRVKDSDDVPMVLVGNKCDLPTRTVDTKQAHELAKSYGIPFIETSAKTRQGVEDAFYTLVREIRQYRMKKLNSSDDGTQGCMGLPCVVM
# [2] = biological target: GDP-bound HRAS wild-type protein (Homo sapiens, UniProt P01112); assay: Binding to HRAS by surface plasmon resonance (SPR), Single Cycle Kinetics; conditions: for HRAS/KRAS (ratio of KD value with respect to GDP-bound HRAS wild-type protein to KD value with respect to KRAS): SPR KD ratio HRAS/KRAS, class symbols
# Chain of GDP-bound HRAS wild-type protein (P01112 whole entry): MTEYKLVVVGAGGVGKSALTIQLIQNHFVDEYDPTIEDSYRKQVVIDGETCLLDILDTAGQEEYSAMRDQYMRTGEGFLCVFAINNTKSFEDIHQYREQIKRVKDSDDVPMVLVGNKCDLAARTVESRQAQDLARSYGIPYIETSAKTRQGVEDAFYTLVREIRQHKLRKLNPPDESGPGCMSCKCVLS
# [3] = biological target: GDP-bound KRAS wild-type protein (Homo sapiens, UniProt P01116); assay: Binding to KRAS by surface plasmon resonance (SPR), Single Cycle Kinetics
# Chain of GDP-bound KRAS wild-type protein (P01116 whole entry): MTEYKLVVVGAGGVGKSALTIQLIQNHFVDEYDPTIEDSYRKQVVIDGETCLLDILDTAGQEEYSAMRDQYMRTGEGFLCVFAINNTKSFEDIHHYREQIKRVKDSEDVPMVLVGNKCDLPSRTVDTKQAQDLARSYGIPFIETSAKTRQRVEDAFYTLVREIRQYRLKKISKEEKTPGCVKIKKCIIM
# [4] = tested on: human lung cancer strain NCI-H441;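 note: cell proliferation inhibition after four days measured by CellTiter-Glo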
# [5] = SPR, GDP-bound NRAS wild-type protein vs GDP-bound KRAS wild-type protein
# [6] = SPR, GDP-bound HRAS wild-type protein vs GDP-bound KRAS wild-type protein
# [7] = SPR, Single Cycle Kinetics, GDP-bound KRAS wild-type protein, read-out: KRAS KD
# [8] = SPR Single Cycle Kinetics, GDP-bound KRAS wild-type protein, 1:1 binding model, read-out: KRAS KD
# [9] = SPR, GDP-bound NRAS wild-type protein vs GDP-bound KRAS wild-type protein, KD ratio class
# [10] = SPR, GDP-bound HRAS wild-type protein vs GDP-bound KRAS wild-type protein, KD ratio class
# [11] = SPR, Single Cycle Kinetics, 1:1 binding model, GDP-bound KRAS wild-type protein, read-out: KRAS KD
"Kd [3, 7] [nM]",IC50 [4] [nM],"Kd [3, 8] [nM]",SMILES,"NRAS/KRAS (ratio of KD value for NRAS to KD value for KRAS) [1, 5]","HRAS/KRAS (ratio of KD value for HRAS to KD value for KRAS) [2, 6]",other results
0.056,6.5,–,"CCO[C@@H]1C[C@H]2C(=O)NC3(CCC3)C(=O)N(C)[C@@H](C3CCCC3)C(=O)N(C)[C@H](C(=O)N(C)C)CC(=O)N(C)[C@@H](CC3CCC3)C(=O)N[C@@H]([C@@H](C)CC)C(=O)N(C)CC(=O)N(C)[C@H]3C/C=C\CCN(C3=O)[C@@H](Cc3ccc(C(F)(F)F)cc3)C(=O)N(C)CC(=O)N[C@@H](CCc3cc(F)c(C(F)(F)F)c(F)c3)C(=O)N2C1 [PP1118, (2S,8S,12R,14S,20S,23S,27S,30S,36S,38Z)-27-(cyclobutylmethyl)-20-cyclopentyl-8-[2-[3,5-difluoro-4-(trifluoromethyl)phenyl]ethyl]-12-ethoxy-N,N,4,19,22,26,32,35-octamethyl-30-[(1S)-1-methylpropyl]-3,6,9,15,18,21,25,28,31,34,42-undecaoxo-2-[[4-(trifluoromethyl)phenyl]methyl]spiro[1,4,7,10,16,19,22,26,29,32,35-undecazatricyclo[34.5.1.0^10,14]dotetracont-38-ene-17,1′-cyclobutane]-23-carboxamide]",A (a compound having 10 or more and less than 20 is denoted as A),B (a compound having 3 or more and less than 10 is denoted as B),–
–,144,4.1,CCC[C@H]1C(=O)N[C@@H](CC(C)C)C(=O)N(C2CC2)CC(=O)N(C)[C@H]2C/C=C\CCN(C2=O)[C@@H](Cc2ccc(C)cc2)C(=O)N(C)CC(=O)N[C@@H](CCc2cc(F)c(C(F)(F)F)c(F)c2)C(=O)N2C[C@H](OCC)C[C@H]2C(=O)NC2(CCC2)C(=O)N(C)[C@@H](C2CCCC2)C(=O)N(C)[C@H](C(=O)N(C)C)CC(=O)N1C [PP2532],–,–,NRAS/KRAS (ratio of KD value with respect to GDP-bound NRAS wild-type protein to KD value with respect to KRAS) [1]: A (a compound having 10 or more and less than 20 is denoted as A); HRAS/KRAS (ratio of KD value with respect to GDP-bound HRAS wild-type protein to KD value with respect to KRAS) [2]: B (a compound having 3 or more and less than 10 is denoted as B)
–,16.3,0.51,CCC[C@H]1C(=O)N[C@@H]([C@@H](C)CC)C(=O)N(C)CC(=O)N(C)[C@H]2C/C=C\CCN(C2=O)[C@@H](Cc2ccc(C(F)F)cc2)C(=O)N(C)CC(=O)N[C@@H](CCc2ccc(Cl)c(Cl)c2)C(=O)N2C[C@H](OCC)C[C@H]2C(=O)NC2(CC(C)(C)C2)C(=O)N(C)[C@@H](C(CC)CC)C(=O)N(C)[C@H](C(=O)N(C)C)CC(=O)N1C [PP2531],–,–,NRAS/KRAS (ratio of KD value with respect to GDP-bound NRAS wild-type protein to KD value with respect to KRAS) [1]: AA (a compound having 20 or more is denoted as AA); HRAS/KRAS (ratio of KD value with respect to GDP-bound HRAS wild-type protein to KD value with respect to KRAS) [2]: A (a compound having 10 or more and less than 20 is denoted as A)
–,185,2.7,"CCCN1C(=O)CN(C)C(=O)CN(C)C(=O)[C@H]([C@@H](C)CC)NC(=O)[C@H](CC(C)C)N(C)C(=O)C[C@@H](C(=O)N2CCOCC2)N(C)C(=O)[C@H](C2CCCC2)N(C)C(=O)[C@](C)(CC(C)C)NC(=O)[C@@H]2CCCN2C(=O)[C@H](CCc2cc(F)c(C(F)(F)F)c(F)c2)NC(=O)CN(C)C(=O)[C@@H]1Cc1ccc(C(F)(F)F)cc1 [PP0759] ([NMeL]I[Sar][Sar][NPrPhe(4-CF3)][Sar][hPhe(3,5-F2-4-CF3)]P[αMeL][NMeGly(cPent)][NMeD]-Morpholide; lactam N-11)",–,–,"NRAS/KRAS (ratio of KD value with respect to NRAS to KD value with respect to KRAS) [1, 5]: B (a compound having 3 or more and less than 10 is denoted as B); HRAS/KRAS (ratio of KD value with respect to HRAS to KD value with respect to KRAS) [2, 6]: B (a compound having 3 or more and less than 10 is denoted as B)"
0.092,15.5,–,CCO[C@@H]1C[C@H]2C(=O)NC3(CCC3)C(=O)N(C)[C@@H](C3CCCC3)C(=O)N(C)[C@H](C(=O)N(C)C)CC(=O)N(C)[C@@H](CC)C(=O)N[C@@H]([C@@H](C)CC)C(=O)N(C)CC(=O)N(C)[C@H]3CCCCCN(C3=O)[C@@H](Cc3ccc(F)cc3)C(=O)N(C)CC(=O)N[C@@H](CCc3cc(F)c(C(F)(F)F)c(F)c3)C(=O)N2C1 [PP1190],B (a compound having 3 or more and less than 10 is denoted as B),B (a compound having 3 or more and less than 10 is denoted as B),–
–,51.3,–,CCO[C@@H]1C[C@H]2C(=O)NC3(CCC3)C(=O)N(C)[C@@H](C(CC)CC)C(=O)N(C)[C@H](C(=O)N(C)C)CC(=O)N(C)[C@@H](CC(C)C)C(=O)N[C@@H]([C@@H](C)CC)C(=O)N(C)CC(=O)N(C)[C@H]3C/C=C\CCN(C3=O)[C@@H](CC3CCCCC3)C(=O)N(C)CC(=O)N[C@@H](CCc3cc(F)c(C(F)(F)F)c(F)c3)C(=O)N2C1 [PP1432],–,–,"NRAS/KRAS (ratio of KD value for NRAS to KD value for KRAS) [1, 9]: AA (a compound having 20 or more is denoted as AA); HRAS/KRAS (ratio of KD value for HRAS to KD value for KRAS) [2, 10]: A (a compound having 10 or more and less than 20 is denoted as A); Kd [3, 11]: 0.61 nM"
0.15,–,–,"CCC[C@H]1C(=O)N[C@@H]([C@@H](C)CC)C(=O)N2CCC[C@H]2C(=O)N(C)[C@H]2C/C=C\CCN(C2=O)[C@@H](Cc2ccc(C)cc2)C(=O)N(C)CC(=O)N[C@@H](CCc2cc(F)c(C(F)(F)F)c(F)c2)C(=O)N2C[C@H](OCC)C[C@H]2C(=O)N(C)C2(CCC2)C(=O)N(C)[C@@H](C2CCCC2)C(=O)N(C)[C@H](C(=O)N2CCCC2)CC(=O)N1C [PP3117, (1S,4S,10S,13S,17S,20S,26S,28R,32S,38S,42Z)-20-cyclopentyl-32-[2-[3,5-difluoro-4-(trifluoromethyl)phenyl]ethyl]-28-ethoxy-2,14,18,21,24,36-hexamethyl-10-[(1S)-1-methylpropyl]-13-propyl-38-(p-tolylmethyl)-17-(pyrrolidine-1-carbonyl)spiro[2,8,11,14,18,21,24,30,33,36,39-undecazatetracyclo[37.5.1.0^4,8.0^26,30]pentatetracont-42-ene-23,1′-cyclobutane]-3,9,12,15,19,22,25,31,34,37,45-undecone]",A (a compound having 10 or more and less than 20 is denoted as A),A (a compound having 10 or more and less than 20 is denoted as A),"ratio of the KD value with respect to GDP-bound NRAS wild-type protein to the KD value with respect to KRAS ([1]; SPR, KD(NRAS)/KD(KRAS)): A (a compound having 10 or more and less than 20 is denoted as A); ratio of the KD value with respect to GDP-bound HRAS wild-type protein to the KD value with respect to KRAS ([2]; SPR, KD(HRAS)/KD(KRAS)): A (a compound having 10 or more and less than 20 is denoted as A); Kd ([3]; SPR, Single Cycle Kinetics, 1:1 binding model, read-out: KD value with respect to GDP-bound KRAS wild-type protein): 0.15 nM; IC50 ([4]; read-out: NCI-H441 cell proliferation inhibitory activity, 50% proliferation inhibitory concentration (IC50 value), NCI-H441, four days, CellTiter-Glo): 2.6 nM"
0.16,23.5,–,CCO[C@@H]1C[C@H]2C(=O)NC3(CCC3)C(=O)N(C)[C@@H](C3CCCC3)C(=O)N(C)[C@H](C(=O)N3CCOCC3)CC(=O)N(C)[C@@H](C)C(=O)N[C@@H]([C@@H](C)CC)C(=O)N(C)CC(=O)N(C)[C@H]3CCCCCN(C3=O)[C@@H](Cc3ccc(F)cc3)C(=O)N(C)CC(=O)N[C@@H](CCc3cc(F)c(C(F)(F)F)c(F)c3)C(=O)N2C1 [PP1175],B (a compound having 3 or more and less than 10 is denoted as B),B (a compound having 3 or more and less than 10 is denoted as B),–
1.5,43.4,–,CCO[C@@H]1C[C@H]2C(=O)NC3(CC(C)(C)C3)C(=O)N(C)[C@@H](C(CC)CC)C(=O)N(C)[C@H](C(=O)N(C)C)CC(=O)N(C)[C@@H](COC)C(=O)N[C@@H]([C@@H](C)CC)C(=O)N(C)CC(=O)N(C)[C@H]3C/C=C\CCN(C3=O)[C@@H](CC3CCCCC3)C(=O)N(C)CC(=O)N[C@@H](CCc3ccc(C(F)(F)F)c(OC)c3)C(=O)N2C1 [PP2452],A (a compound having 10 or more and less than 20 is denoted as A),A (a compound having 10 or more and less than 20 is denoted as A),–
–,26,0.52,CCC[C@H]1C(=O)N[C@@H]([C@@H](C)CC)C(=O)N(C)CC(=O)N(C)[C@H]2C/C=C\CCN(C2=O)[C@@H](Cc2ccc(C(F)(F)F)cc2)C(=O)N(C)CC(=O)N[C@@H](CCc2ccc(Cl)c(Cl)c2)C(=O)N2C[C@H](OCC)C[C@H]2C(=O)NC2(CC(C)(C)C2)C(=O)N(C)[C@@H](CC2CCC2)C(=O)N(C)[C@H](C(=O)N(C)C)CC(=O)N1C [PP2766],–,–,NRAS/KRAS (ratio of KD value with respect to GDP-bound NRAS wild-type protein to KD value with respect to KRAS) [1]: A (a compound having 10 or more and less than 20 is denoted as A); HRAS/KRAS (ratio of KD value with respect to GDP-bound HRAS wild-type protein to KD value with respect to KRAS) [2]: A (a compound having 10 or more and less than 20 is denoted as A)
–,10.8,–,CC[C@H](C)[C@@H]1NC(=O)[C@H](CC)N(C)C(=O)C[C@@H](C(=O)N(C)C)N(C)C(=O)[C@H](C2CCCC2)N(C)C(=O)C2(CCCC2)NC(=O)[C@@H]2CCCN2C(=O)[C@H](CCc2ccc(C(F)(F)F)c(Cl)c2)NC(=O)CN(C)C(=O)[C@H](Cc2ccc(C(F)(F)F)cc2)N2C[C@H](C)CC[C@@H](C2=O)N(C)C(=O)CN(C)C1=O [PP1336],–,–,"NRAS/KRAS (ratio of KD value for NRAS to KD value for KRAS) [1, 9]: B (a compound having 3 or more and less than 10 is denoted as B); HRAS/KRAS (ratio of KD value for HRAS to KD value for KRAS) [2, 10]: B (a compound having 3 or more and less than 10 is denoted as B); Kd [3, 11]: 0.074 nM"
